Data published in US8110217B2, “Sphingomyelin liposomes for the treatment of hyperactive bladder disorders” (priority 2001, dated 2012).
“Also recorded” adds a separate entry of the source.

System: hyperactive bladder (PS/KCl)
Experiment: Continuous CMG, hyperactive bladder induced by PS/KCl (Examples 5-6)
Assay type: in vivo, female Sprague-Dawley rats
Conditions: for Amplitude / Compliance / ICI / PT: N=6
Description: This was followed by instillation of liposomes (LP) in saline (in the case of the former) or LP/KCl.
Intravesical bladder pressure was recorded via a transurethral catheter in adult female Sprague-Dawley rats anesthetized with urethane (1.2 g/kg) administered by subcutaneous injection (sc). Some animals were pretreated with capsaicin (125 mg/kg, sc) four days prior to the experiments. […] Parameters measured included intercontraction interval (ICI), amplitude of bladder contractions, compliance and micturition pressure threshold (PT).
Animal Preparation. Thirty-four female Sprague-Dawley rats (250-300 g) were used in this study. Animals were anesthetized with urethane (1.2 g/kg, sc). Body temperature was maintained in the physiological range using a heating lamp.
Cystometrogram (CMG). A transurethral bladder catheter (PE-50) was connected via a three-way stopcock to a pressure transducer and to a syringe pump. This was used to record intravesical pressure and to infuse solutions into the bladder. A control CMG was performed by slowly filling the bladder with saline (0.04 ml/min) to elicit repetitive voiding. The parameters recorded were amplitude, PT, compliance, and ICI of reflex bladder contractions. Measurements in each animal represented the average of 3 to 5 bladder contractions.
Induction of a Hyperactive Bladder. […] L. Cheng et al., 1993, Am. J. Physiol. 265:R132-138). The experimental design is illustrated in FIG. 7. The KCl concentration used was within the range of concentrations present in normal rat urine (M. Ohnishi et al., 2001, Toxicol. Appl. Pharmacol. 174:122-129).
Preparation of Liposomes (LP). LP were prepared as described by Kirby and Gregoriadis (C. J. Kirby and G. Gregoriadia, 1984, “A simple procedure for preparing liposomes capable of high encapsulation efficiency under mild conditions,” Liposome Technology; G. Gregnoriadis, Ed., C.R.C. Press, Inc., Boca Raton, Fla., Vol. 1, p. 20). Briefly, LP were constructed as a 2:1 molar ratio of L-α-phosphatidylcholine and cholesterol (Sigma Chemical Co., St. Louis, Mo.) to a final lipid concentration of 2 mg/ml in saline. Lipids in chloroform were dried down together in the proper ratio under nitrogen. The residues were reconstituted as LP in saline or 500 mM KCl by intense sonication.
Statistical Analyis. Statistical analyses were performed using Student's t test for paired or unpaired data, where applicable. A p-value less than 0.05 was considered significant. All data are expressed in Example 2 (below) as means±S.E.

[1] = Table 1B series: saline, KCl 500 mM 1 h, PS/KCl 1 h, LP/KCl 2 h
[2] = Table 1C series: saline, KCl 500 mM 1 h, PS/KCl 1 h
[3] = Table 1C: KCl infusion 2 h after PS/KCl
[4] = infusion after PS/KCl, vs pretreatment

Question: What does the source list for [Cl-].[K+] [KCl]?
Answer: PT change (PS/KCl series, vs pretreatment): significantly increased; Amplitude [1]: 28.8 ± 1.2 cm H2O; Compliance [1]: 0.284±0.028 ml/cm H2O; ICI [1]: 15.8 ± 1.4 min; PT [1]: 8.2 ± 0.9 cm H2O; Amplitude [2]: 28.8 ± 2.2 cm H2O; Compliance [2]: 0.226±0.050 ml/cm H2O; ICI [2]: 16.3 ± 1.5 min; PT [2]: 6.8 ± 0.6 cm H2O; Amplitude [3]: 33.0 ± 2.3 cm H2O; Compliance [3]: 0.043±0.014 ml/cm H2O; ICI [3]: 2.9 ± 0.5 min; PT [3]: 11.8 ± 1.6 cm H2O; change of ICI / CMGs (infused alone: PS 10 mg/ml or KCl 500 mM): not changed; also recorded: did not significantly change the CMGs; Compliance change [4]: further reduced; ICI change [4]: not significantly changed; also recorded: did not alter the ICI for periods as long as 120 min
